Read-outs that look alike come from different tables or passages of the source.
Assays:
MDA-MB-231 cells [1] = assay: Soft agar growth assay of MDA-MB-231 cells; format: cell-based, human; details: parental MDA-MB-231 cells; nicotine 10 μM or NNK 1 μM
Excerpt: (§1) The experiment was repeated four times with duplicate samples.
The assay was repeated four times with duplicate samples.

MCF-10A (DOX) cells [2] = assay: Long-term transformation of MCF-10A (DOX) cells, soft agar colony formation; format: cell-based, human; details: soft agar 21 days
Excerpt: Anchorage-independent growth of α9-nAChR overexpressing (MCF-10A-Nic (DOX) and MCF-10A-NNK (DOX)) and siRNA-expressing MDA MB-231 Si α5, Si α9, and Sc cells were examined in soft agar assays. The base layer consisted of 0.9% low-melting point SeaPlaque agarose (Sigma, St. Louis, Mo.) in complete MCF-10A culture medium. Soft agar was composed of 0.4% SeaPlaque agarose in complete DMEM and F12 culture medium was mixed with 1×10^4 cells and plated on top of the base layer in 60-mm-diameter culture dishes. […] Soft agar cultures were maintained at 37° C. for an additional 21 days and observed for the appearance of colonies with a Leica DMI 4000B Microscope Imaging System (Leica Microsystems, Wetzlar, Germany). The assay was repeated four times with duplicate samples.

MDA-MB-231 cells [3] = assay: MTT cell proliferation assay in MDA-MB-231 cells (parental, Sc, Si α5, Si α9); format: cell-based, human
Excerpt: A) Detection of nAChR subunits by reverse transcription-polymerase chain reaction (RT-PCR) in normal and cancerous human breast cell lines. MCF-7, MDA-MB-231, AU-565, MDA-MB-453, and BT-483 are transformed human breast cancer cells; MCF-10A and HBL-100 are considered normal human breast cells. The expression profiles of nAChR subunits in human SAEC (small airway epithelial), NHBE (normal human bronchial epithelial), and H157 (lung cancer) cells were also examined as described previously (West K A, Brognard J, Clark A S, et al. J Clin Invest 2003; 111(1):81-90). B) Relative mRNA expression of different nAChR subunits in normal and tumor human breast tissues isolated from 50 breast cancer patients. The cDNA was used for RT-PCR analysis and the experiment was repeated twice. Percent of occurrence is shown. C) Expression of the α5 and α9 nAChR subunits in stable MDA-MB-231 cell lines that express α9-nAChR (Si α9), α5-nAChR (Si α5), or scrambled (Sc) short interfering RNAs (siRNAs). […] Levels of α5 and α9 mRNAs were determined by RT-PCR, and levels of the α5 and α9 proteins by western blotting (WB). In each case, glyceraldehyde 3-phosphate dehydrogenase (GADPH) expression served as a control. D) Cell proliferation in Si α5, Sc, and parental MDA-MB-231 cells treated with dimethylsulfoxide DMSO vs nicotine, and in cells treated with DMSO vs the nicotine metabolite, 4-(methylnitrosamino)-1-(3-pyridyl)-1-butanone (NNK). Parental MDA-MB-231 cells (231) and 231 cells stably transformed the Si α5-, Sc-, or Si α9-siRNAs were treated with either nicotine (10 μM), NNK (1 μM), or vehicle alone in the absence of continued G418 selection afterwards. […] Cell proliferation was measured by the 3-(4,5-dimethylthiazol-2-yl)-2,5-diphenyltetrazolium (MTT) assay, in which a greater number of cells was reflected by an increased OD540 nm at the indicated time points. The experiment was repeated four times with duplicate samples. Data points represent the mean; error bars indicate 95% confidence intervals. The data were analyzed by nonparametric two-sided tests (Kruskal-Wallis and Mann-Whitney tests). […] E) Confocal microscopy of α9-nAChR expression in human breast cancer (MCF-7) cells. Immunofluorescence with a fluorescein isothiocyate-conjugated secondary antibody was used to detect the α9-nAChR, whereas a rhodamine-conjugated fluorescent antibody was used for caveolin-1 labeling. Localization of α9-nAChR (left, green), the membrane protein caveolin-1 (middle, red), and the merged image (right, yellow) are shown. Scale bar=25 μm. F) Dose-dependent binding of [^3H]-nicotine to the endogenous α9-nAChR receptor in human breast cancer MDA-MB-231 cells (left panel) and time-dependent [^3H]-nicotine binding in parental MDA-MB-231 cells (231), or in 231 cells stably transformed with α9-nAChR siRNA (Si α9) or scrambled control (Sc) siRNA (right panel). The experiment was repeated four times with duplicate samples. Data points represent the mean; error bars indicate the 95% confidence intervals. […] G) Analysis of α9-nicotinic acetylcholine receptor (α9-nAChR) expression in human breast carcinoma tissues. Determination of α9-nAChR mRNA levels using reverse transcription-polymerase chain reaction (RT-PCR). […] PCR was performed for 30 cycles.
(§2) Cell growth, proliferation, and viability were determined using the 3-(4,5-dimethylthiazol-2-yl)-2,5-diphenyltetrazolium (MTT) assay (Chou Y H, Ho Y S, Wu C C, et al. Food Chem Toxicol 2007; 45(8):1356-67.) Stock solutions of 10 mM nicotine and NNK (Chemsyn, Lenexa, Kans.) were prepared in dimethyl sulfoxide (DMSO). This assay was repeated four times with duplicate samples.

MCF-10A (DOX) cells [4] = assay: MTT cell proliferation assay in MCF-10A (DOX) cells; format: cell-based, human; details: nicotine 10 μM, NNK 1 μM; DOX+ vs DOX− cells
Method: Data points represent the mean; error bars indicate 95% confidence intervals. […] The experiment was repeated four times with duplicate samples. […] After transplantation, mice bearing tumors were treated with DOX (0.5 mg/mL) via drinking water for 14 days. After that, all mice bearing tumors (200 mm^3) were divided into either α9-nAChR mRNA expressing (DOX−) or non-expressing (DOX+) groups in the presence or absence of nicotine (10 mg/mL) in their drinking water (n=5, per group). […] Error bars represent 95% confidence intervals.
as §2

[5] = target: T1, endogenous α9-nAChR receptor in human breast cancer MDA-MB-231 cells (Homo sapiens, UniProt Q9UGM1); assay: [^3H]-nicotine equilibrium binding in MDA-MB-231 cells
T1 construct: endogenous α9-nAChR receptor in human breast cancer MDA-MB-231 cells; endogenous in cells; host or cells: MDA-MB-231 (parental, Sc and Si α9 clones)
Method: L-(−)-[N-methyl-^3H]-nicotine (71-75 Ci/mmol) was purchased from Dupont/NEN Research Products (Boston, Mass.), and free base nicotine (99% pure) was purchased from the Eastman Kodak Co. (Rochester, N.Y.). To study the uptake of [^3H]-nicotine in MDA-MB-231 cell monolayers (2×10^6 cells per well), cells were rinsed three times with a buffer containing 140 mM NaCl, 5.4 mM KCl, 1.8 mM CaCl2, 0.8 mM MgSO4, 5 mM glucose, and 25 mM Hepes (pH 7.4). Saturation binding studies were conducted for 2 hours at 37° C. in six-well plates, and used at least eight different concentrations of [^3H]-nicotine ranging from 1 to 15 nM. Time-dependent association kinetic studies in MDA-MB-231, Si α9, Sc cells were conducted using a single concentration of [^3H]-nicotine (7 nM) for treatments of 5, 10, 15, 30, 60 and 90 minutes. For determination of nonspecific binding, 10 μM unlabeled nicotine was pre-added to medium, after which cells were washed three times with ice-cold buffer and then exposed to [^3H]-nicotine. [^3H]-nicotine uptake was stopped by aspiration of the uptake medium and washing the wells three times with ice-cold buffer. The cells were lysed in 1 mL of 0.5% Triton X-100, and aliquots of the cell lysates were transferred to scintillation vials to determine the incorporated radioactivity by scintillation counting. The assay was repeated four times with duplicate samples.

[6] = system: MDA-MB-231 tumor xenografts; assay: MDA-MB-231 α9-nAChR siRNA-expressing xenografts in NOD-SCID mice; format: in vivo, mouse
Excerpt: as §1

[7] = system: MCF-10A-Nic (DOX) xenografts; details: after 7 weeks; for tumor volume: with nicotine 10 mg/mL drinking water
Method: BALB/c-nu/nu mice (female, 4 weeks old, n=5 per group) purchased from National Science Council Animal Center, Taipei, were injected subcutaneously with MCF-10A-Nic (DOX) and vector control (5×10^6) cells. After transplantation, mice bearing tumors were treated with DOX (0.5 mg/mL) via drinking water for 14 days. After that, all mice bearing tumors (200 mm^3) were divided into either α9-nAChR mRNA expressing (DOX−) or non-induced (DOX+) groups, the latter of which could express the α9-nAChR mRNA at basal level. The mice were simultaneously treated with or without nicotine (10 mg/mL) in their drinking water for an additional 6 weeks. The xenografts were weighed and either snap-frozen in dry ice and stored at −80° C. for RNA and protein analysis or formalin-fixed and paraffin-embedded for immunohistochemical observation.
Examination was conducted as to whether induction of α9-nAChR in the presence or absence of nicotine stimulation in vivo would effectively promote tumor growth (FIG. 6). BALB/c-nu/nu mice (female, 4 weeks old) were injected subcutaneously with transformed MCF-10A-Nic (DOX) cells (5×10^6). After that, all mice bearing tumors (200 mm^3) were divided into either α9-nAChR mRNA expressing (DOX−) or non-expressing (DOX+) groups in the presence or absence of nicotine (10 mg/mL) in their drinking water (n=5, per group).

[8] = Sc cells, day 11, nicotine 10 μM, NNK 1 μM
[9] = Si α5 cells, day 11, nicotine 10 μM, NNK 1 μM
[10] = nicotine-treated (10 mg/mL drinking water) mice with parental MDA-MB-231 tumors

T1 sequence (Q9UGM1 26-479 limits assumed): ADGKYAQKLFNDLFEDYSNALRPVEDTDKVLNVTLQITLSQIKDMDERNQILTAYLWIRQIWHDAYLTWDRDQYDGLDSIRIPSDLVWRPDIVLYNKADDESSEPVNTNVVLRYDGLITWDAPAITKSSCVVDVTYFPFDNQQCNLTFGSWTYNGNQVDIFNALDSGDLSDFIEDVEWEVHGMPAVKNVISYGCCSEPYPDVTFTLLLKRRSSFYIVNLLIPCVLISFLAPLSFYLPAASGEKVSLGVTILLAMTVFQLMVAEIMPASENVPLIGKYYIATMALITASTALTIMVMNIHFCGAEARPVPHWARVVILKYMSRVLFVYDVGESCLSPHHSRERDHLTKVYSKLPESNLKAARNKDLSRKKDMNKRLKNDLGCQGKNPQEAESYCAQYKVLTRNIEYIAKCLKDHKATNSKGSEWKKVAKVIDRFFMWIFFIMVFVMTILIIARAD

Row | SMILES | no. of colonies in parental cells (MDA-MB-231 cells [1]) | colonies formed, DOX− compared with DOX+ cells (MCF-10A (DOX) cells [2]; NNK 1 μM for 60 days) | difference in mean OD540 nm vs control (DMSO) (MDA-MB-231 cells [3]; [8]) | mean OD540 nm (MDA-MB-231 cells [3]; [8]) | difference in mean OD540 nm vs control (DMSO) (MDA-MB-231 cells [3]; [9]) | mean OD540 nm (MDA-MB-231 cells [3]; [9]) | induction of cell proliferation (MCF-10A (DOX) cells [4]) | time at which maximum binding activity is attained ([5]; MDA-MB-231 cells, [^3H]-nicotine 7 nM) | Kd ([5]; MDA-MB-231 cells, saturation binding 2 hours at 37° C., read-out: dissociation constant (Kd) of [^3H]-nicotine binding) | [^3H]-nicotine bound by parental cells ([5]; parental MDA-MB-231 cells) | colonies formed in soft agar (MCF-10A (DOX) cells [2]; MCF-10A (DOX−) cells, nicotine 10 μM for 60 days) | difference in mean OD540 nm vs control (DMSO) (MDA-MB-231 cells [3]) | mean OD540 nm (MDA-MB-231 cells [3]) | tumor weight in nicotine-fed mice ([6]; mice injected with MDA-MB-231 (231) or Sc cells (FIG. 3D)) | tumor volume at 6 weeks treatment [6, 10] | tumor weight at 6 weeks [6, 10] | difference in tumor volume, with vs without nicotine ([7]; +DOX) | tumor volume ([7]; +DOX) | difference in tumor volume, with vs without nicotine ([7]; −DOX) | tumor volume ([7]; −DOX)
1 | CN(CCCC(=O)c1cccnc1)N=O [NNK, 4-(methylnitrosamino)-1-(3-pyridyl)-1-butanone] | 406 colonies | More colonies | 1.00 | 1.77 | 0.99 | 1.78 | induced cell proliferation was observed only in the MCF-10A (DOX+) cell line |  |  |  |  |  |  |  |  |  |  |  |  | 
2 | CN1CCCC1c1cccnc1 [[^3H]-nicotine, L-(−)-[N-methyl-^3H]-nicotine] |  |  |  |  |  |  |  | 60 min | 3 nM | 489.7 DPM |  |  |  |  |  |  |  |  |  | 
3 | CN1CCCC1c1cccnc1 (stereo not shown) [nicotine] | 341 colonies |  |  |  |  |  | induced cell proliferation was observed only in the MCF-10A (DOX+) cell line |  |  |  | six | 0.58 | 1.35 | heavier | 2993.2 mm^3 | 4.38 g | 235.4 mm^3 | 501.6 mm^3 | 277.4 mm^3 | 898.6 mm^3

Reference: patent publication US8361984B2, “Small interfering RNAs and methods for prevention, inhibition and/or treatment of malignant progression of breast cancer” (Taipei Medical University, priority 2011, dated 2013)
